Measurements as given in US20200253196A1, “SOLVENTS FOR AGRICULTURAL APPLICATIONS AND PESTICIDE FORMULATIONS” (priority 2017, published 2020).

Test: Solubility of pesticides in solvents (pesticide powder added in 2% stepwise increments)
Assay type: physicochemical
Conditions: for Dissolving ability of Comparative Solvent B compared with Inventive Solvent 1: comparison Solvesso 150 vs ethyl 3-ethoxypropionate; for Dissolving ability of Comparative Solvent B compared with Inventive Solvent 1 / Dissolving ability of Comparative Solvent A compared with Inventive Solvent 1: in words; for Solubility in Comparative Solvent B: solvent Solvesso 150; for Solubility in Comparative Solvent B / Solubility in Inventive Solvent 1 / Solubility in Comparative Solvent A: concentration just prior to the one where the powder is not dissolved, no more than 2% lower than actual solubility; for Solubility in Inventive Solvent 1: solvent ethyl 3-ethoxypropionate; for Solubility in Comparative Solvent A: solvent xylene; for Dissolving ability of Comparative Solvent A compared with Inventive Solvent 1: comparison xylene vs ethyl 3-ethoxypropionate
Description: The solubility of various pesticides in these solvents are evaluated.
Each pesticide powder is added by solvent in 2% stepwise increments to the final pesticide concentration. Each pesticide reaches a concentration where the pesticide powder is not dissolved by the solvent.

SMILES	Dissolving ability of Comparative Solvent B compared with Inventive Solvent 1	Solubility in Comparative Solvent B [weight %]	Solubility in Inventive Solvent 1 [weight %]	Solubility in Comparative Solvent A [weight %]	Dissolving ability of Comparative Solvent A compared with Inventive Solvent 1
CC(C)N1C(=O)N(c2ccccc2)CS/C1=N\C(C)(C)C [Buprofezin]	comparable dissolving ability	16	18	10	–
Cc1c(COC(=O)[C@@H]2[C@H](/C=C(\Cl)C(F)(F)F)C2(C)C)cccc1-c1ccccc1 (racemic) [Bifenthrin]	comparable dissolving ability	44	43	45	stronger dissolving ability
CC(C)(C)C(O)(CCc1ccc(Cl)cc1)Cn1cncn1 (stereo not shown) [Tebuconazole]	–	2.0	16	4.0	–
CCCCC(C#N)(Cn1cncn1)c1ccc(Cl)cc1 (stereo not shown) [Myclobutanil]	–	23	39	27	–
CC(C)(C)C(=O)C(Oc1ccc(Cl)cc1)n1cncn1 (stereo not shown) [Triazolone]	–	12	32	23	–
CCOP(=S)(OCC)Oc1nc(Cl)c(Cl)cc1Cl [Chlopyrifos]	–	54	63	70	stronger dissolving ability
COC(=O)N(OC)c1ccccc1COc1ccn(-c2ccc(Cl)cc2)n1 [Pyraclostrobin]	–	31	47	42	–
